Measurements published in ChEMBL document CHEMBL1140361, “Tubulin-polymerization inhibitors derived from thalidomide” (2005).

Key:
Format in all cases: functional
HL-60 [1] = assay: Cell growth-inhibitory activity toward human leukemia cell line HL60 at 10 uM concentration
HL-60 [2] = assay: Cell growth-inhibitory activity toward human leukemia cell line HL60 at 6 uM concentration
Sus scrofa = species: Sus scrofa; assay: Inhibitory activity against tubulin polymerization at 20 uM
HL-60 [3] = assay: Cell growth-inhibitory activity toward human leukemia cell line HL60 at 3 uM concentration

SMILES | inhibition at 10 µM (HL-60 [1]) [%] | inhibition at 6 µM (HL-60 [2]) [%] | Inhibition (Sus scrofa) [%] | inhibition at 3 µM (HL-60 [3]) [%]
CC(C)c1cccc(C(C)C)c1N1C(=O)c2ccc(O)cc2C1=O | ~100 | 72 | <83 | 6
CC(C)c1cccc(C(C)C)c1N1C(=O)c2cccc([N+](=O)[O-])c2C1=O | ~0 | ~0 | <10 | ~0
Cc1cccc(C)c1N1C(=O)c2ccc(O)cc2C1=O | 6 | ~0 | <10 | ~0
Cc1cccc(C)c1N1C(=O)c2cccc(O)c2C1=O | ~0 | ~0 | – | ~0
O=C1c2ccc(O)cc2C(=O)N1c1ccccc1 | 34 | < 5 | <10 | ~0
COc1cc2c(c(OC)c1OC)-c1ccc(OC)c(=O)cc1[C@@H](NC(C)=O)CC2 [COLCHICINE] | – | – | 78 | –
CC(C)c1cccc(C(C)C)c1N1C(=O)c2ccccc2C1=O | < 5 | ~0 | 7 | ~0
O=C1c2ccccc2C(=O)N1c1ccccc1 [N-PHENYL-PHTHALIMIDE] | ~0 | ~0 | – | ~0
CC(C)c1cccc(C(C)C)c1N1C(=O)c2cccc(N)c2C1=O | ~0 | ~0 | <10 | ~0
O=C1CCC(N2C(=O)c3ccccc3C2=O)C(=O)N1 (stereo not given) [THALIDOMIDE] | – | – | <10 | –
CC(C)c1cccc(C(C)C)c1N1C(=O)c2ccc(N)cc2C1=O | 23 | < 5 | 81 | ~0
O=C1c2cccc(O)c2C(=O)N1c1ccccc1 | ~0 | ~0 | – | ~0
CC(C)c1cccc(C(C)C)c1N1C(=O)c2cccc(O)c2C1=O | 8 | ~0 | 7 | ~0
CC(C)c1cccc(C(C)C)c1N1C(=O)c2ccc([N+](=O)[O-])cc2C1=O | 16 | < 5 | <10 | ~0
Cc1cccc(C)c1N1C(=O)c2ccccc2C1=O | ~0 | ~0 | – | ~0
